From US7166705B2 (Schering Corporation, priority 1999, dated 2007)

What was measured:
SP9144 [1] = biological target: T1, SP9144 (Homo sapiens, UniProt Q9H3N8); assay: [3H]histamine binding assay (saturation and competition), membranes of HEK-293 cells transfected with SP9144; details: for rank order of potency for blocking [3H]-histamine binding: competition with 18 nM [3H]histamine, 70 μg membrane protein; for block of [3H]-histamine binding: at concentrations of 10 μM
T1 construct: expressed in transfected cells; host or cells: HEK-293-EBNA / HEK-293 cells, transient transfection with pCR3.1-SP9144
T1 sequence (Q9H3N8 whole entry): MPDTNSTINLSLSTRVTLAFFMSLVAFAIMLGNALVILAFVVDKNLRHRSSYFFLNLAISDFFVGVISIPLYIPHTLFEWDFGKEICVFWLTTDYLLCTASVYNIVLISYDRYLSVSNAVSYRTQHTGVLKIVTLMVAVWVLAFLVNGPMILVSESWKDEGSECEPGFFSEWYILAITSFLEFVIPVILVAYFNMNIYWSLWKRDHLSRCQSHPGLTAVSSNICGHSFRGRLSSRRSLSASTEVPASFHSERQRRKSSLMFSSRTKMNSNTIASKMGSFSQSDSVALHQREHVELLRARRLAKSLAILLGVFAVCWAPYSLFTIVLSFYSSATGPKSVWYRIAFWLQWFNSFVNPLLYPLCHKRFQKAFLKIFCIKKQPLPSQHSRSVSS
Method: (§1) Membrane preparation: HEK-293 cells transfected with SP9144 as described above were harvested by incubating in 5 mM EDTA/phosphate-buffered saline followed by repeated pipetting. The cells were centrifuged 5 min at 1000×g. The EDTA/PBS was decanted and an equal volume of ice-cold 50 mM Tris-HCl, pH 7.5, was added and cells were broken up with a Polytron (PT10 tip, setting 5, 30 sec). Nuclei and unbroken cells were sedimented at 1000×g for 10 min and then the supernatant was centrifuged at 50,000×g for 10 min. The supernatant was decanted, the pellet was resuspended by Polytron, a sample was taken for protein assay (bicinchoninic acid, Pierce), and the tissue was again centrifuged at 50,000×g. Pellets were stored frozen at −20° C.
(§2) Samples were filtered on GF/B filters and washed thrice with 2 ml of cold Tris buffer. Filters were dried in a microwave oven, impregnated with Meltilex wax scintillant, and counted at 45% efficiency. […] Curves were fit to the data with Prism (GraphPad Software) nonlinear least-squares curve-fitting program and Ki values were derived from IC50 values according to Cheng and Prusoff (Cheng, Y. C., and Prusoff, W. H. (1973) Relationship between the inhibition constant (Ki) and the concentration of inhibitor which causes 50 per cent inhibition (IC50) of an enzymatic reaction. Biochem. Pharmacol. 22, 3099–3108).

SP9144 [2] = biological target: T1, SP9144; assay: FLIPR intracellular Ca2+ assay, HEK-293-EBNA cells transfected with pCR3.1-SP9144; format: cell-based; details: for rank order of potency for activation of SP9144: transfected HEK-293-EBNA cells; for activation of SP9144 (change in intracellular Ca++, Fluo3 fluorescence): HEK-293-EBNA cells transfected with pCR3.1-SP9144, drugs 1×10^−4 M to 1×10^−9 M
Method: (§3) 24 hours after transfection, cells were harvested and plated at 25,000 cells/well in clear bottom, black walled 96 well plates precoated with poly-D-lysine (Beckton-Dickenson) and cultured overnight in DMEM/10% FBS. For the assay, growth media was removed and replaced with 50 μl/well dye loading medium containing DMEM, 10% FBS, 20 mM HEPES pH 7.4, 2.5 mM probenecid (Sigma), […] Fluo3-AM (Sigma) (dissolved in 10% pluronic acid in DMSO). After 1 hr. at 37° C., the cell plates were washed 4 times with 250 μl Hanks Balanced Salt Solution (HBSS) lacking phenol red and containing 20 mM HEPES, 2.5 mM probenecid, and 0.1% BSA (wash buffer). A final volume of 100 μl/well of wash buffer was added to the plates, and the plates were placed into a Fluorescent Imaging Plate Reader (FLIPR, Molecular Devices) equilibrated to 37° C. […] Fluorescence was monitored once per second for 1 minute, and every 6 seconds for 2 minutes thereafter. After a 10 sec baseline measurement was established, drugs at 3× final concentration (1×10^−4 M to 1×10^−9 M) were added in a volume of 50 μl while the fluorescence continued to be monitored. Values extracted for data analysis represented the maximal fluorescence value minus the minimal fluorescence value detected following the drug addition. Drug stock solutions were initially dissolved in water (or DMSO) and diluted to 3× final concentration using wash buffer.

[3] = system: untransfected HEK-293 cells; assay: [3H]histamine binding to membranes from untransfected HEK-293 cells
Method: as §1, §2

mock transfected cells = system: mock transfected cells
Method: as §3

Row | SMILES | rank order of potency for blocking [3H]-histamine binding (SP9144 [1]) | rank order of potency for activation of SP9144 (SP9144 [2]; FLIPR Ca++ assay) | activation of SP9144 (change in intracellular Ca++, Fluo3 fluorescence) (SP9144 [2]) | also measured
1 | C[C@@H](N)Cc1c[nH]cn1 [(R) α-methylhistamine] | imetit>clobenpropit>histamine>impromidine>Na-methylhistamine>burimamide>(R)-a-methylhistamine>thioperimide>>(S)-a-methylhistamine | Histamine>Nα-methylhistamine>(R) α-methylhistamine>>(S)α-methylhistamine (inactive) | able to activate SP9144 | –
2 | C[C@H](N)Cc1c[nH]cn1 [(S)α-methylhistamine] | imetit>clobenpropit>histamine>impromidine>Na-methylhistamine>burimamide>(R)-a-methylhistamine>thioperimide>>(S)-a-methylhistamine | Histamine>Nα-methylhistamine>(R) α-methylhistamine>>(S)α-methylhistamine (inactive) | inactive | –
3 | CNCCc1c[nH]cn1 [Nα-methylhistamine] | imetit>clobenpropit>histamine>impromidine>Na-methylhistamine>burimamide>(R)-a-methylhistamine>thioperimide>>(S)-a-methylhistamine | Histamine>Nα-methylhistamine>(R) α-methylhistamine>>(S)α-methylhistamine (inactive) | able to activate SP9144 | –
4 | NCCc1c[nH]cn1 [[^3H]-Histamine] | – | – | – | specific binding of [3H]-histamine to membranes (SP9144 [1]; membranes from HEK-293 cells transfected with SP9144 DNA): bound specifically; specific binding of [3H]-histamine to membranes [3]: not to membranes from untransfected HEK-293 cells
5 | CNC(=S)NCCCCc1cnc[nH]1 [buramimide] | imetit>clobenpropit>histamine>impromidine>Na-methylhistamine>burimamide>(R)-a-methylhistamine>thioperimide>>(S)-a-methylhistamine | clobenpropit>imetit>impromidine>buramimide | able to activate SP9144, albeit with reduced efficacy | –
6 | CN(C)CCC(c1ccc(Cl)cc1)c1ccccn1 (centres unmarked) [chlorphenirimine] | – | – | completely inactive | block of [3H]-histamine binding (SP9144 [1]): not able to block
7 | CN/C(=N/CCSCc1nc[nH]c1C)NC#N [cimetidine] | – | – | completely inactive | block of [3H]-histamine binding (SP9144 [1]): not able to block
8 | NC(=NCc1ccc(Cl)cc1)SCCCc1cnc[nH]1 [clobenpropit] | imetit>clobenpropit>histamine>impromidine>Na-methylhistamine>burimamide>(R)-a-methylhistamine>thioperimide>>(S)-a-methylhistamine | clobenpropit>imetit>impromidine>buramimide | able to activate SP9144, albeit with reduced efficacy | –
9 | NCCc1ccc(O)c(O)c1 [dopamine] | – | – | not by other biogenic amines | –
10 | CNC[C@H](O)c1ccc(O)c(O)c1 [epinephrine] | – | – | not by other biogenic amines | –
11 | NCCc1c[nH]cn1 [histamine] | imetit>clobenpropit>histamine>impromidine>Na-methylhistamine>burimamide>(R)-a-methylhistamine>thioperimide>>(S)-a-methylhistamine | Histamine>Nα-methylhistamine>(R) α-methylhistamine>>(S)α-methylhistamine (inactive) | specifically activated | activation by histamine in mock transfected cells (mock transfected cells): not observed
12 | N=C(N)SCCc1cnc[nH]1 [imetit] | imetit>clobenpropit>histamine>impromidine>Na-methylhistamine>burimamide>(R)-a-methylhistamine>thioperimide>>(S)-a-methylhistamine | clobenpropit>imetit>impromidine>buramimide | able to activate SP9144, albeit with reduced efficacy | –
13 | Cc1nc[nH]c1CSCCN=C(N)NCCCc1cnc[nH]1 [impromidine] | imetit>clobenpropit>histamine>impromidine>Na-methylhistamine>burimamide>(R)-a-methylhistamine>thioperimide>>(S)-a-methylhistamine | clobenpropit>imetit>impromidine>buramimide | able to activate SP9144, albeit with reduced efficacy | –
14 | NC[C@H](O)c1ccc(O)c(O)c1 [nor-epinephrine] | – | – | not by other biogenic amines | –
15 | NCCc1c[nH]c2ccc(O)cc12 [serotonin] | – | – | not by other biogenic amines | –
16 | S=C(NC1CCCCC1)N1CCC(c2cnc[nH]2)CC1 [thioperimide] | imetit>clobenpropit>histamine>impromidine>Na-methylhistamine>burimamide>(R)-a-methylhistamine>thioperimide>>(S)-a-methylhistamine | – | no activation of SP9144 | block of the activation of SP9144 by (R)α-methylhistamine (SP9144 [2]; FLIPR Ca++ assay, antagonist mode): could be blocked in a dose dependent manner
